Assay results published in US5668295A, “Protein involved in nicotine synthesis, DNA encoding, and use of sense and antisense DNAs corresponding thereto to affect nicotine content in transgenic tobacco cells and plants” (Philip Morris Incorporated, priority 1995, dated 1997).

Experiments:
[1] = tested on: putrescine N-methyltransferase ("PMT") / highly purified tobacco protein; assay: Substrate specificity test: analogs substituted for putrescine in the standard PMT assay; format: biochemical, Nicotiana tabacum L. var. Burley 21; details: for radioactive product formed when substituted for putrescine: standard PMT assay, 30° C., 30 minutes
Protocol: (§1) The reaction was started by addition of the enzyme sample, and it was carried out at 30° C. for 30 minutes. The reaction was stopped by addition of 0.5 ml of 10% (w/v) NaOH saturated with NaCl.
(§2) The radioactive product, N-[^14 C-methyl]putrescine, was separated from the substrate by solvent extraction into chloroform. After vortexing the stopped reaction mixture with 1 ml of chloroform for 90 seconds, the organic and aqueous phases were separated by centrifugation at 1600×gav for 5 minutes. A 0.5 ml aliquot of the organic phase was then assayed. The 0.5 ml aliquot of the organic phase was added to 9.5 ml of liquid scintillation cocktail (Beckman Instruments, Columbia, Md.) and radioactivity was measured by standard procedures with a liquid scintillation counter.
(§3) One unit of apparent PMT activity is defined as one nanomole of product formed per 30 min., at 30° C.
(§4) Negative controls were included with all PMT assays. Negative controls consisted of reaction mixtures minus enzyme, or reaction stopped with NaOH at time zero.
Substrate specificity tests were carried out with the highly purified tobacco protein of the present invention. 1,3-Diaminopropane and 1,5-diaminopentane (chemical analogs of putrescine) phosphatidylethanolamine (a methyl group acceptor), and N-methylputrescine(the normal product of PMT), were compared with putrescine (1,4-diaminobutane) for ability to serve as an apparent substrate for PMT.

[2] = tested on: putrescine N-methyltransferase ("PMT") / subject tobacco protein; assay: Apparent Km determination in the apparent PMT activity assay; format: biochemical, Nicotiana tabacum L. var. Burley 21; details: partially purified tobacco protein; S-adenosylmethionine in excess
Protocol: as §1, §2, §3, §4

Row | Molecule | radioactive product formed when substituted for putrescine [1] | also measured
1 | NCCCN [1,3-diaminopropane, 1,3-Diaminopropane] | no detectable amount of radioactive product was formed | 
2 | NCCCCCN [1,5-diaminopentane] | no detectable amount of radioactive product was formed | 
3 | CNCCCCN [N-methylputrescine] |  | radioactive product formation relative to that observed with putrescine ([1]; substituted for putrescine in the PMT assay): less than 6%
4 | NCCCCN [putrescine, 1,4-diaminobutane] |  | Km [2]: ~400 µM
5 | phosphatidylethanolamine | no detectable amount of radioactive product was formed | 
